According to US9468680B2, “Differential effects of drugs on transport in a multi-layer 3D spheroid model” (Brown University, priority 2011, dated 2016):
Counter-ions that a name gives are not always drawn.

Key:
Pgp [1] = target: T1, Pgp (Homo sapiens, UniProt P08183); test: cell-based
Description: (§1) KGN cells, a human granulosa cell line, were grown in DMEM^29. OVCAR-3 and SK-OV-3 cells were grown in Roswell Park Memorial Institute medium (RPMI; Invitrogen). Both media were supplemented with 10% fetal bovine serum (FBS) (Thermo Fisher Scientific, Waltham, Mass.) and 1% penicillin/streptomycin and grown at 37° C. and 10% CO2. Cells were trypsinized using 0.05% trypsin and resuspended to the desired cell concentration. Spheroids that were pre-stained were formed from cells incubated with 5 μM CellTracker™ Red CMPTX, CellTracker™ Green CMFDA, or CellTracker™ Blue CMAC (Invitrogen) in serum-free DMEM for 1 hour prior to trypsinization. 75 μl of the cell suspension was pipetted into the seeding chamber of each gel. Cells were allowed to settle for 20 minutes and 4 mL of medium was added. Cells self-assembled for 24 hours to form spheroids before experimentation.
(§2) Quantitative image analysis was performed using a custom MATLAB (Mathworks, Natick, Mass.) program. Briefly, fifty evenly spaced radii were drawn across each spheroid and fluorescence at each pixel was averaged. […] Total spheroid fluorescence was determined by the integration of the fluorescent profiles (Equation 2). To compare data across experiments, we normalized the spheroids to the fluorescence per depth of single cells at the final time point.
(§3) To measure uptake of calcein-AM and transport of calcein, medium was removed from the hydrogels containing self-assembled KGN spheroids (24 hours), and replaced with serum-free DMEM containing 1 μM calcein-AM (Invitrogen). […] Images were taken once per hour for 11 hours, at 37° C. and 10% CO2.
(§4) Hydrogels were equilibrated with a drug-containing medium overnight at 37° C. and 10% CO2, and spheroids were self-assembled for 24 hours in their respective drug concentration. […] A working solution of carbenoxolone (Sigma) was prepared by diluting appropriate volumes of a 10 mM stock solution into serum-free medium. Spheroids were assembled for 24 hours and then pretreated with carbenoxolone for 5 hours prior to adding calcein-AM for the uptake assay. Medium containing drug and calcein-AM were used for the uptake assay.

gap junctions = target: T2, gap junctions (Homo sapiens, UniProt P17302); test: transport of calcein from outer shell to core of KGN spheroids (compartmentalization analysis); assay type: cell-based
T2 construct: endogenous in cells; host or cells: KGN human granulosa cell line, self-assembled 3D spheroids
Description: as §1, §2, §3, §4
To deconvolve this fluorescent signal into an average 3D radial profile, the spheroid was estimated as a series of concentric spheres (multi-layers). Each layer (shell) was 14 μm in width and contained a homogenous concentration of fluorescent calcein (FIGS. 3C and D). The total fluorescence f(i) at X, layer is sum of the fluorescence contribution from all shells at Xi. Mathematically, the total fluorescence can be written as
[formula] Here, fnorm(j) is the fluorescence/height in the i^th shell and h(i, j) is the height at point (Xi, Yj). Note h(i, i)=0 lies at the centerline of the spheroid. […] Equation (4) results in the following iterative formula: […]
The inner core was taken as about≧14 μm from the center in the smallest dimension to ensure the core contained whole cells.

KGN spheroids = test: loss of calcein from calcein-loaded KGN spheroids; assay type: cell-based, human; conditions: after 135 minutes calcein-AM loading
Description: To measure uptake of calcein-AM and transport of calcein, medium was removed from the hydrogels containing self-assembled KGN spheroids (24 hours), and replaced with serum-free DMEM containing 1 μM calcein-AM (Invitrogen). Fluorescent imaging of calcein began immediately and images were taken at regular intervals over 135 minutes at 37° C. and 10% CO2. To measure loss or loss of calcein, hydrogels containing KGN spheroids that had been incubated with calcein-AM for 135 minutes, thus loading the spheroids with calcein, were rinsed with DMEM and incubated in DMEM without calcein-AM. Images were taken once per hour for 11 hours, at 37° C. and 10% CO2.

Pgp [2] = target: T1, Pgp; conditions: 2D, calcein-AM assay, concentrations ranging from 1-100 μM; cited from earlier work
[3] = 1 μM calcein-AM, 75 minutes, n=15
[4] = 5 μM drug, 1 μM calcein-AM, 110 minutes
[5] = 5 μM drug, normalized data, 110 minutes

T1 sequence (P08183 whole entry): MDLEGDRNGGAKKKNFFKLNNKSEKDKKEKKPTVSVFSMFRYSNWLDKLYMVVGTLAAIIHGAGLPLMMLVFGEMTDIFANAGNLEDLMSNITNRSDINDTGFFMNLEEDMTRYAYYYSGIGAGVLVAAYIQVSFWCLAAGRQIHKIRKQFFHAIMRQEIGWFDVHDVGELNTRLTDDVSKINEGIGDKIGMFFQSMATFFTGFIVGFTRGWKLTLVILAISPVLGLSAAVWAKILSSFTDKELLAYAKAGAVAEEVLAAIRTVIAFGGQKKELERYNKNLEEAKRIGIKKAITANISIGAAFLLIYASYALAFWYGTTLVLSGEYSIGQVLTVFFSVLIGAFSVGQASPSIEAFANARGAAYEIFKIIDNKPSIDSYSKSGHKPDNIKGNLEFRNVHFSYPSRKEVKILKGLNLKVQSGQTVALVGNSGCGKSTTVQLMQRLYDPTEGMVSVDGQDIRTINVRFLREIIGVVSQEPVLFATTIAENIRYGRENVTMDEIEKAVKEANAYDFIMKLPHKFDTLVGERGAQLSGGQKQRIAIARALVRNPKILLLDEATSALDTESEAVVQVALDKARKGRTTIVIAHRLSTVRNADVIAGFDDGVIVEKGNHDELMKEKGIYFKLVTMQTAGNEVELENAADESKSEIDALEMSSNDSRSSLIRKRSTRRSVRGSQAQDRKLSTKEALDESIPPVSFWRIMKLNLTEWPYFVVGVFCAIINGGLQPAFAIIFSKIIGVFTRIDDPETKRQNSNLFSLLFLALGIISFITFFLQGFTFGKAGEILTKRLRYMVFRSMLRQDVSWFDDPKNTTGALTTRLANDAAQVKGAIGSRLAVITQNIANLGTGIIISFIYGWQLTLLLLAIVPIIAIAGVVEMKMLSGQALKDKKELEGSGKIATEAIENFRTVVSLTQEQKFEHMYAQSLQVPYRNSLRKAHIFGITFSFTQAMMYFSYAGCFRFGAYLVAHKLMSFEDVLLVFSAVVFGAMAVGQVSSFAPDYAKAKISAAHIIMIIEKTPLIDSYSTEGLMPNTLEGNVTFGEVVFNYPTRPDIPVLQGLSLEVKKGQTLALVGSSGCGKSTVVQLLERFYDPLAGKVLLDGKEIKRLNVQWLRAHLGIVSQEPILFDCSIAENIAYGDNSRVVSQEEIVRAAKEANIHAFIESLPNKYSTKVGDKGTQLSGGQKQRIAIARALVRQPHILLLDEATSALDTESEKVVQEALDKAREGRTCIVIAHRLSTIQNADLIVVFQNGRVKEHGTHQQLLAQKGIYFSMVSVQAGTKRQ
T2 sequence (P17302 2-382 limits assumed): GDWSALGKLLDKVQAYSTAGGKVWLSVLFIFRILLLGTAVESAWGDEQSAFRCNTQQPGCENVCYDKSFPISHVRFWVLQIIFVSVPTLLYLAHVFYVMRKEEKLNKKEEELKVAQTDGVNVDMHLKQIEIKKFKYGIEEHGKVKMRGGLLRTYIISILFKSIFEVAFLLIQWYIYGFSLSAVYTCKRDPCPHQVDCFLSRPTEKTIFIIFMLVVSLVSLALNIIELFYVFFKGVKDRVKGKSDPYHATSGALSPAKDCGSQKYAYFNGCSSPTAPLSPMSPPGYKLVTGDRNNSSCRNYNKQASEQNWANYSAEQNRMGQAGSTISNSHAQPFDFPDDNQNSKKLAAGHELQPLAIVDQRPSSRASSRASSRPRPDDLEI

CC1(C)[C@@H](OC(=O)CCC(=O)O)CC[C@]2(C)[C@H]3C(=O)C=C4[C@@H]5C[C@@](C)(C(=O)O)CC[C@]5(C)CC[C@@]4(C)[C@]3(C)CC[C@@H]12 [carbenoxolone]
IC50 (Pgp [1]): 81 µM | calcein in the outer shell, fold higher than controls (Pgp [1]; human, 135 min, 100 μM): 3 fold | percentage of calcein in the core compared to controls (gap junctions; [3]): reduced | percentage of calcein in the outer shell compared to controls (gap junctions; [3]): increased | IC50 (gap junctions; 1 μM calcein-AM, 75 minutes, read-out: half-maximal response, inhibition of gap junctions (fraction of calcein compartmentalized to outer shell)): 9.4 µM | calcein in the core, fold less than controls (gap junctions; CBX 100 μM, 1 μM calcein-AM, 135 minutes): 8 fold | percentage of calcein in the core (gap junctions; CBX 100 μM, 135 minutes, n=18, untreated 15±3%): 0.5±2% | percentage of calcein in the outer shell (gap junctions; CBX 100 μM, 135 minutes, n=18, untreated 27±3%): 52±4% | effect on loss of total spheroid calcein (KGN spheroids): no effect | initial rate of calcein loss from the outer shell (KGN spheroids; drug-free medium, control 17±3% per hour, p<0.05): 13±1 % per hour

CN(C)C(=O)C(CCN1CCC(O)(c2ccc(Cl)cc2)CC1)(c1ccccc1)c1ccccc1 [loperamide, loperamide hydrochloride]
calcein in the outer shell compared to untreated controls (Pgp [1]; [4]): significantly increased | total concentration of calcein in the spheroids compared to untreated controls (Pgp [1]; [4]): significantly increased | calcein concentration in the core of the spheroid compared to untreated (gap junctions; [4]): did not increase | percentage of calcein in the core compared to control (gap junctions; [5]): decreased | percentage of calcein in the outer most shell compared to control (gap junctions; [5]): increased | percent maximum inhibition (Pgp [2]): 76.3%
